Assay results published in patent EP0638079B1, “DEAZAAMINOPTERINS FOR TREATMENT OF INFLAMMATION” (SRI INTERNATIONAL, priority 1992, dated 1993).

Key:
L. casei = settings: folate dependent bacteria; cited from earlier work
S. faecium = settings: folate dependent bacteria; cited from earlier work
[1] = tested on: human liver cell line (Chang liver)
DBA/1 mice = experiment: Type II collagen arthritis mouse model (visual inflammation, rear paw swelling); assay type: in vivo; settings: for No Mice on day indicated (visual evidence of inflammation), Day 30 / No Mice on day indicated (visual evidence of inflammation), Day 37 / No Mice on day indicated (visual evidence of inflammation), Day 44 / Ave. thickness of rear paws (mm) over days 30-44, Treated: Table IIA; for No Mice on day indicated (visual evidence of inflammation), Day 30 / No Mice on day indicated (visual evidence of inflammation), Day 37 / No Mice on day indicated (visual evidence of inflammation), Day 44 / No mice affected on day indicated (visual evidence of inflammation), Day 30 / No mice affected on day indicated (visual evidence of inflammation), Day 37 / No mice affected on day indicated (visual evidence of inflammation), Day 44: affected mice/mice in group; for No Mice on day indicated (visual evidence of inflammation), Day 30: dose (mg/kg) per compound as in Dose column; for No Mice on day indicated (visual evidence of inflammation), Day 37 / No Mice on day indicated (visual evidence of inflammation), Day 44 / No mice affected on day indicated (visual evidence of inflammation), Day 30: dose per compound as in Dose column; for Ave. thickness of rear paws (mm) over days 30-44, Treated / Avg. thickness of rear paws (mm) over days 30-44, Treated: caliper; for Avg. thickness of rear paws (mm) over days 30-44, Treated / No mice affected on day indicated (visual evidence of inflammation), Day 30 / No mice affected on day indicated (visual evidence of inflammation), Day 37 / No mice affected on day indicated (visual evidence of inflammation), Day 44: Table IIB
Excerpt: The following data illustrate administration to mice of several deazaaminopterin compounds of the invention and methotrexate in the evaluation of anti-inflammatory activity. The data are presented as two separate observations, the visually observed presence of inflammation in the mouse, and the caliper-measured degree of swelling of the rear paws of the mouse.
The efficacy evaluation used a mouse model of inflammatory disease that occurs in response to an antigenic challenge with Type II collagen [J. S. Courtenay et al., Nature, 283, 666-668 (1980)].
The fundamental aspects of the model allow it to serve as a representative presentation of human disease. The parallels between the known aspects of the mouse model and rheumatoid arthritis include a humoral response in which antibodies are produced to an antigen that is present in the joint tissue and the antigenic challenge is accompanied by cell-mediated aspects of immunity. The resultant inflammation of the joint tissue yields facets of periostitis, synovial lining hyperplasia, degradation of bone and cartilage and pannus and new bone formation.
The basic elements of the model included the immunization of DBA/1 mice with a suspension of fetal bovine Type II collagen (1 mg/ml) prepared in complete Freund's adjuvant. The primary injection was given using 0.1 ml of the collagen emulsion giving a total of 0.1 mg of Type II collagen per mouse. The animals were then given a booster injection of Type II collagen (100 µg in 0.01 M acetic acid ) on day 21 by intraperitoneal injection.
Typically, in this model the untreated positive control animals have an incidence of arthritis ranging from 90 to 100% of injected animals at day 44.
The effect of methotrexate and test compounds on the extent of inflammation was determined by direct analysis of paw swelling using caliper measurements. The results are presented in Table IIA, and show a direct correlation between the decrease in the number of animals having disease and a decrease in the extent of inflammation, as determined by paw swelling. Table IIA […]

P388 leukemia = settings: against P388 leukemia in BDF1 mice; cited from earlier work
[2] = tested on: L1210 murine leukemia cells; settings: cited from earlier work
[3] = target: T1, bovine liver dihydrofolate reductase (Bos taurus, UniProt P00376); settings: cited from earlier work
T1 construct: host or cells: bovine liver
T1 sequence (P00376 1-187): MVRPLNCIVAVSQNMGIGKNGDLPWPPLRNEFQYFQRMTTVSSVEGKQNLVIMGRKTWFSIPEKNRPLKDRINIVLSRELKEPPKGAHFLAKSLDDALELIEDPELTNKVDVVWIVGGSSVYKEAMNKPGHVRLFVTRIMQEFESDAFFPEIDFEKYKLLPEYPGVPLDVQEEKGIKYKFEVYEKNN

L1210 = settings: against L1210 in BDF1 mice; cited from earlier work
[4] = 30 day measurement (first value)
[5] = 44 day measurement (second value)

Nc1nc(N)c2cc(CCc3ccc(C(=O)NC(CCC(=O)O)C(=O)O)cc3)cnc2n1 (stereo not drawn) [5,10-Dideazaaminopterin]
growth inhibition (L. casei): effective growth inhibitor
growth inhibition (S. faecium): effective growth inhibitor
Ratio Of Cytotoxic Potency Versus Methotrexate For Inhibition Of Human Liver Cell Growth In Culture [1]: 2.46

CCc1c(CNc2ccc(C(=O)NC(CCC(=O)O)C(=O)O)cc2)cnc2nc(N)nc(N)c12 (stereo not drawn) [5-Et-10-H (5-Et-5-DA)]
No Mice on day indicated (visual evidence of inflammation), Day 30 (DBA/1 mice): 2/8
No Mice on day indicated (visual evidence of inflammation), Day 37 (DBA/1 mice): 5/8
No Mice on day indicated (visual evidence of inflammation), Day 44 (DBA/1 mice): 2/8
Ratio Of Cytotoxic Potency Versus Methotrexate For Inhibition Of Human Liver Cell Growth In Culture [1]: 4.50

CCc1c(CN(C)c2ccc(C(=O)NC(CCC(=O)O)C(=O)O)cc2)cnc2nc(N)nc(N)c12 (stereo not drawn) [5-Et-10-Me (5-Et-5-DMTX)]
No Mice on day indicated (visual evidence of inflammation), Day 30 (DBA/1 mice): 0/7
No Mice on day indicated (visual evidence of inflammation), Day 37 (DBA/1 mice): 1/7
No Mice on day indicated (visual evidence of inflammation), Day 44 (DBA/1 mice): 1/7
Ratio Of Cytotoxic Potency Versus Methotrexate For Inhibition Of Human Liver Cell Growth In Culture [1]: 3.18

C#CCN(Cc1cnc2nc(N)nc(N)c2c1)c1ccc(C(=O)NC(CCC(=O)O)C(=O)O)cc1 (stereo not drawn) [5-H-10-Propargyl (10-Prgl-5-DA), 10-propargyl-5-deazaaminopterin]
No Mice on day indicated (visual evidence of inflammation), Day 30 (DBA/1 mice): 3/8
No Mice on day indicated (visual evidence of inflammation), Day 37 (DBA/1 mice): 2/8
No Mice on day indicated (visual evidence of inflammation), Day 44 (DBA/1 mice): 6/8
Ratio Of Cytotoxic Potency Versus Methotrexate For Inhibition Of Human Liver Cell Growth In Culture [1]: 1.26

C=CCN(Cc1cnc2nc(N)nc(N)c2c1C)c1ccc(C(=O)NC(CCC(=O)O)C(=O)O)cc1 (stereo not drawn) [5-Me-10-Allyl (5-Me-10-Allyl-5-DA)]
No Mice on day indicated (visual evidence of inflammation), Day 30 (DBA/1 mice): 0/8
No Mice on day indicated (visual evidence of inflammation), Day 37 (DBA/1 mice): 0/8
No Mice on day indicated (visual evidence of inflammation), Day 44 (DBA/1 mice): 0/8

Cc1c(CNc2ccc(C(=O)NC(CCC(=O)O)C(=O)O)cc2)cnc2nc(N)nc(N)c12 (stereo not drawn) [5-Me-10-H (5-Me-5-DA), 5-methyl-5-deazaaminopterin]
No Mice on day indicated (visual evidence of inflammation), Day 37 (DBA/1 mice): 2/8
No Mice on day indicated (visual evidence of inflammation), Day 44 (DBA/1 mice): 6/8
Ratio Of Cytotoxic Potency Versus Methotrexate For Inhibition Of Human Liver Cell Growth In Culture [1]: 4.39

Cc1c(CN(C)c2ccc(C(=O)NC(CCC(=O)O)C(=O)O)cc2)cnc2nc(N)nc(N)c12 (stereo not drawn) [5-Me-10-Me (5-Me-5-DMTX), 5-methyl-5-deazamethotrexate]
No Mice on day indicated (visual evidence of inflammation), Day 30 (DBA/1 mice): 1/8
No Mice on day indicated (visual evidence of inflammation), Day 37 (DBA/1 mice): 4/8
No Mice on day indicated (visual evidence of inflammation), Day 44 (DBA/1 mice): 5/8
Ratio Of Cytotoxic Potency Versus Methotrexate For Inhibition Of Human Liver Cell Growth In Culture [1]: 2.79

C#CCN(Cc1cnc2nc(N)nc(N)c2c1C)c1ccc(C(=O)NC(CCC(=O)O)C(=O)O)cc1 (stereo not drawn) [5-Me-10-Propargyl (5-Me-10-Prgl-5-DA), 10-propargyl-5-methyl-5-deazaaminopterin]
Ave. thickness of rear paws (mm) over days 30-44, Treated (DBA/1 mice; 30 day measurement (first value in parentheses)): (2.29-2.29) mm
Ave. thickness of rear paws (mm) over days 30-44, Treated (DBA/1 mice; 44 day measurement (second value in parentheses)): (2.29-2.29) mm
No Mice on day indicated (visual evidence of inflammation), Day 30 (DBA/1 mice): 3/8
No Mice on day indicated (visual evidence of inflammation), Day 37 (DBA/1 mice): 3/8
No Mice on day indicated (visual evidence of inflammation), Day 44 (DBA/1 mice): 2/8
Ratio Of Cytotoxic Potency Versus Methotrexate For Inhibition Of Human Liver Cell Growth In Culture [1]: 21.18

CCCc1c(CNc2ccc(C(=O)N[C@@H](CCC(=O)O)C(=O)O)cc2)cnc2nc(N)nc(N)c12 [5-Pr-10-H (5-Pr-5-DA), N-[4-[[(2,4-Diamino-5-propylpyrido[2,3-d]pyrimidin-6-yl)methyl]amino]benzoyl]-L-glutamic Acid]
No Mice on day indicated (visual evidence of inflammation), Day 30 (DBA/1 mice): 0/7
No Mice on day indicated (visual evidence of inflammation), Day 37 (DBA/1 mice): 0/7
No Mice on day indicated (visual evidence of inflammation), Day 44 (DBA/1 mice): 0/7
Ratio Of Cytotoxic Potency Versus Methotrexate For Inhibition Of Human Liver Cell Growth In Culture [1]: 1.78

CC(Cc1cnc2nc(N)nc(N)c2c1)c1ccc(C(=O)NC(CCC(=O)O)C(=O)O)cc1 (stereo not drawn) [10-Me-5,10-Dideazaaminopterin]
Ratio Of Cytotoxic Potency Versus Methotrexate For Inhibition Of Human Liver Cell Growth In Culture [1]: 2.69

CCCCc1c(CNc2ccc(C(=O)N[C@@H](CCC(=O)O)C(=O)O)cc2)cnc2nc(N)nc(N)c12 [Compound 5-Bu-10-NH]
Ratio Of Cytotoxic Potency Versus Methotrexate For Inhibition Of Human Liver Cell Growth In Culture [1]: 7.20

Cc1c(CNc2ccc(C(=O)N[C@@H](CCC(=O)O)C(=O)O)s2)cnc2nc(N)nc(N)c12 [Example B', N-[5-[[(2,4-Diamino-5-methylpyrido[2,3-d]pyrimidin-6-yl)methyl]amino]thiophene-2-carbonyl]-L-glutamic Acid]
Avg. thickness of rear paws (mm) over days 30-44, Treated (DBA/1 mice; [4]): 2.19 mm
Avg. thickness of rear paws (mm) over days 30-44, Treated (DBA/1 mice; [5]): 2.33 mm
No mice affected on day indicated (visual evidence of inflammation), Day 30 (DBA/1 mice): 0/5
No mice affected on day indicated (visual evidence of inflammation), Day 37 (DBA/1 mice): 2/5
No mice affected on day indicated (visual evidence of inflammation), Day 44 (DBA/1 mice): 2/5

Cc1c(CN(C)c2ccc(C(=O)N[C@@H](CCC(=O)O)C(=O)O)s2)cnc2nc(N)nc(N)c12 [Example C', N-[5-[[(2,4-Diamino-5-methylpyrido[2,3-d]pyrimidin-6-yl)methyl]methylamino]thiophene-2-carbonyl]-L-glutamic Acid]
Avg. thickness of rear paws (mm) over days 30-44, Treated (DBA/1 mice; [4]): 2.13 mm
Avg. thickness of rear paws (mm) over days 30-44, Treated (DBA/1 mice; [5]): 2.27 mm
No mice affected on day indicated (visual evidence of inflammation), Day 30 (DBA/1 mice): 0/8
No mice affected on day indicated (visual evidence of inflammation), Day 37 (DBA/1 mice): 1/8
No mice affected on day indicated (visual evidence of inflammation), Day 44 (DBA/1 mice): 3/8

CCc1c(CN(C)c2ccc(C(=O)N[C@@H](CCC(=O)O)C(=O)O)s2)cnc2nc(N)nc(N)c12 [Example D', N-[5-[[(2A-Diamino-5-ethylpyrido[2,3d] -pyrimidin-6-yl)methyl]methylamino]thiophene-2-carbonyl]-L-glutamic Acid]
Avg. thickness of rear paws (mm) over days 30-44, Treated (DBA/1 mice; [4]): 2.13 mm
Avg. thickness of rear paws (mm) over days 30-44, Treated (DBA/1 mice; [5]): 2.32 mm
No mice affected on day indicated (visual evidence of inflammation), Day 30 (DBA/1 mice): 2/8
No mice affected on day indicated (visual evidence of inflammation), Day 37 (DBA/1 mice): 4/8
No mice affected on day indicated (visual evidence of inflammation), Day 44 (DBA/1 mice): 7/8

Nc1nc(N)c2cc(CNc3ccc(C(=O)N[C@@H](CCC(=O)O)C(=O)O)cc3)cnc2n1 [L-5-deazaaminopterin]
in vivo potency compared with methotrexate (P388 leukemia): equipotent with methotrexate
potency as inhibitor compared with methotrexate [2]: equipotent with methotrexate
potency as inhibitor compared with methotrexate [3]: equipotent with methotrexate
in vivo potency compared with methotrexate (L1210): equipotent with methotrexate

CN(Cc1cnc2nc(N)nc(N)c2n1)c1ccc(C(=O)N[C@@H](CCC(=O)O)C(=O)O)cc1 [MTX, methotrexate, reference compound]
No Mice on day indicated (visual evidence of inflammation), Day 30 (DBA/1 mice): 1/22
No Mice on day indicated (visual evidence of inflammation), Day 37 (DBA/1 mice): 1/22
No Mice on day indicated (visual evidence of inflammation), Day 44 (DBA/1 mice): 6/22
Avg. thickness of rear paws (mm) over days 30-44, Treated (DBA/1 mice; [4]): 2.128 mm
Avg. thickness of rear paws (mm) over days 30-44, Treated (DBA/1 mice; [5]): 2.34 mm
No mice affected on day indicated (visual evidence of inflammation), Day 30 (DBA/1 mice): 1/22
No mice affected on day indicated (visual evidence of inflammation), Day 37 (DBA/1 mice): 1/22
No mice affected on day indicated (visual evidence of inflammation), Day 44 (DBA/1 mice): 6/22
effectiveness of prophylactic regimen (DBA/1 mice; drug begun two days prior to administration of antigen versus starting drug at day 19): more effective than starting drug at day 19
Ratio Of Cytotoxic Potency Versus Methotrexate For Inhibition Of Human Liver Cell Growth In Culture [1]: 1.00
